Assay results reported in patent US12428403B2, “N-(heterocyclyl and heterocyclylalkyl)-3-benzylpyridin-2-amine derivatives as SSTR4 agonists” (Takeda Pharmaceutical Company Limited, priority 2020, dated 2025).

biological target: SSTR4 (Homo sapiens, UniProt P31391); assay: cell-based
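Also: CHO-K1 cells overexpressing SSTR4, reduction of forskolin-driven cAMP after 30 min compound exposure at room temperature, cAMP read by HTRF LANCE Ultra kit.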
Experimental: This cell-based assay measures the ability of compounds to inhibit forskolin stimulated cAMP in CHO-K1 cells overexpressing SSTR4. CHO-K1 cells overexpressing SSTR4 (CHO-SSTR4) are purchased from DiscoveRx (product code 95-0059C2). The CHO-SSTR4 cells are maintained in F12K media with 10% Fetal Bovine Serum (Hyclone), 1% Pen/Strep (Life Technologies), and 800 μg/mL G418 (Life Technologies). To perform the assay, 3000 cells are plated per well in white 384-well plate (Corning 3570) in 50 complete media and the cells are allowed to attach for 16 hours in a 37° C., 5% CO2 incubator. The next day, the culture media is removed from the cells and the cells are washed (added then removed) with Krebs Ringer Buffer (ZenBio, KRB-1000 mL). Test compounds are suspended in DMSO and diluted in stimulation buffer: Krebs Ringer Buffer plus 0.5% BSA (Roche), 300 μM IBMX (Sigma), and 350 nM forskolin (Sigma). The cells are incubated in 10 μL compound/stimulation buffer for 30 minutes at room temperature. Cellular cAMP levels are detected with a HTRF LANCE Ultra cAMP kit (Perkin Elmer, catalog number TRF0264).
The assay is performed in accordance with the manufacturer's instructions. Five μL of diluted Eu-W8044 labeled streptavidin (dilution: 1:50 in cAMP Detection Buffer) is added to each well. Then 5 μL of diluted biotin cAMP (dilution: 1:150 in cAMP Detection Buffer) is added to each well. The plates are covered and allowed to incubate for 60 minutes at room temperature on a shaker. HTRF (665 nm/615 nm) is read on a Perkin Elmer ENVISION plate reader. The pEC50 values are generated using Activity Base for Screening Data Management.

Chain of SSTR4 (P31391 whole entry): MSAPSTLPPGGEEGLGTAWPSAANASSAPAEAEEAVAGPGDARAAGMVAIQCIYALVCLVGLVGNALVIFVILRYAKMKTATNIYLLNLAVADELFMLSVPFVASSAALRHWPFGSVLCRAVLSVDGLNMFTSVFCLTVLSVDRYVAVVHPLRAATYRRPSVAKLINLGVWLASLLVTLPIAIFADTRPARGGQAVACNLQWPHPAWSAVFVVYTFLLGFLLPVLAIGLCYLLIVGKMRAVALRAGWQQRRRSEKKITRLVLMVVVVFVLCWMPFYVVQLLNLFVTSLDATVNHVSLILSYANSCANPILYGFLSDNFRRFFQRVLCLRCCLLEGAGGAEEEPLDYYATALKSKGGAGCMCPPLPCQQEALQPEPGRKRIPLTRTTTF

EC50 [nM] | Compound
661 | CC1CN(C)CCC1Nc1ncc(C(F)(F)F)nc1Cc1ccc(F)cc1 (mixture of isomers) [Example 91, N-(1,3-dimethylpiperidin-4-yl)-3-(4-fluorobenzyl)-5-(trifluoromethyl)pyrazin-2-amine]
398 | CC1CN(C)CCC1Nc1ncc(C(N)=O)cc1Cc1ccc(F)cc1 (mixture of isomers) [Example 102, 6-((1,3-dimethylpiperidin-4-yl)amino)-5-(4-fluorobenzyl)nicotinamide]
224 | CC[C@@H]1CN(C)CC[C@H]1Nc1ncc(C(=O)NC)nc1Cc1ccc(F)cc1 (racemic) [Example 36, 5-((trans-3-ethyl-1-methylpiperidin-4-yl)amino)-6-(4-fluorobenzyl)-N-methylpyrazine-2-carboxamide]
47.9 | Cc1nc(N[C@@H]2CCN(C)C[C@H]2C)c(Cc2ccc(F)cc2)nc1C(=O)N(C)C (racemic) [Example 47, 5-((trans-1,3-dimethylpiperidin-4-yl)amino)-6-(4-fluorobenzyl)-N,N,3-trimethylpyrazine-2-carboxamide]
741 | CC[C@@H]1CN(C)CC[C@H]1Nc1ncc(C(F)(F)F)nc1Cc1ccc(F)cc1 (racemic) [Example 95, N-(trans-3-ethyl-1-methylpiperidin-4-yl)-3-(4-fluorobenzyl)-5-(trifluoromethyl)pyrazin-2-amine]
219 | Fc1ccc(Cc2nccnc2N[C@@H]2CCNC[C@H]2F)cc1 (racemic) [Example 115, 3-(4-fluorobenzyl)-N-(trans-3-fluoropiperidin-4-yl)pyrazin-2-amine]
67.6 | Cc1cccc2nc(Cc3ccccc3)c(NCCN3CCC3)nc12 (single isomer, unassigned) [Example 2, N-(2-(azetidin-1-yl)ethyl)-3-benzyl-8-methylquinoxalin-2-amine]
457 | Cc1cccc2nc(NCCN3CCC3)c(Cc3ccccc3)nc12 (single isomer, unassigned) [Example 3, N-(2-(azetidin-1-yl)ethyl)-3-benzyl-5-methylquinoxalin-2-amine]
331 | COc1cccc(Cc2nc3c(C)cccc3nc2NCCN2CCC2)c1 (single isomer, unassigned) [Example 5, N-(2-(azetidin-1-yl)ethyl)-3-(3-methoxybenzyl)-5-methylquinoxalin-2-amine]
708 | C[C@@H](c1ccc(F)cc1)c1nc(C(N)=O)cnc1NCCN1CCCC1 (single isomer, unassigned) [Example 20]
331 | C[C@@H](c1ccc(F)cc1)c1nc(C(N)=O)cnc1N[C@@H]1CCN(C)C1 (single isomer, unassigned) [Example 31]
537 | CNC(=O)c1cnc(N[C@@H]2CCN(C)C2)c([C@@H](C)c2ccc(F)cc2)n1 (single isomer, unassigned) [Example 34]
1200 | CNC(=O)c1cnc(N[C@@H]2CCN(C)C2)c([C@H](C)c2ccc(F)cc2)n1 (single isomer, unassigned) [Example 35]
813 | C[C@H]1C[C@H](Nc2nccnc2Cc2ccc(F)cc2)CCN1C (single isomer, unassigned) [Example 113, N-(trans-1,2-dimethylpiperidin-4-yl)-3-(4-fluorobenzyl)pyrazin-2-amine]
575 | C[C@H]1C[C@@H](Nc2nccnc2Cc2ccc(F)cc2)CCN1C (single isomer, unassigned) [Example 114, N-(cis-1,2-dimethylpiperidin-4-yl)-3-(4-fluorobenzyl)pyrazin-2-amine]
575 | C[C@@H](c1ccc(F)cc1)c1nccnc1NCCN1CCCC1 (single isomer, unassigned) [Example 122]
120 | Cc1nnc([C@@H](C)c2ccc(F)cc2)c(N[C@@H]2CCN(C)C2)n1 (single isomer, unassigned) [Example 142]
224 | Cc1nnc([C@@H](C)c2ccc(F)cc2)c(N[C@H]2CCN(C)C2)n1 (single isomer, unassigned) [Example 147]
363 | Cc1nnc([C@@H](C)c2ccccc2)c(N[C@@H]2CCN(C)C2)n1 (single isomer, unassigned) [Example 150]
316 | Cc1nnc([C@H](C)c2ccccc2)c(N[C@H]2CCN(C)C2)n1 (single isomer, unassigned) [Example 151]
166 | c1ccc(Cc2nc3ccccc3nc2NCCN2CCCC2)cc1 [Example 1, 3-benzyl-N-(2-(pyrrolidin-1-yl)ethyl)quinoxalin-2-amine]
661 | Cc1cccc(Cc2cc3cccc(C)c3nc2NCCN2CCCC2)c1 [Example 7, 8-methyl-3-(3-methylbenzyl)-N-(2-(pyrrolidin-1-yl)ethyl)quinolin-2-amine]
81.3 | C[C@H](c1ccc(F)cc1)c1nc(C(=O)NC2CCC2)cnc1NCCN1CCCC1 [Example 9, (R)-N-cyclobutyl-6-(1-(4-fluorophenyl)ethyl)-5-((2-(pyrrolidin-1-yl)ethyl)amino)pyrazine-2-carboxamide]
13.8 | Cc1nc(NCCN2CCCC2)c(C(C)c2ccc(F)cc2)nc1C(=O)O (centres unmarked) [Example 55]

EC50 [nM] | Compound
7.59 | CO[C@H]1C[C@@H](NC(=O)c2nc(C(C)c3ccc(F)cc3)c(NCCN3CCCC3)nc2C)C1 (stereo partly drawn) [Example 56, 6-(1-(4-fluorophenyl)ethyl)-N-(cis-3-methoxycyclobutyl)-3-methyl-5-((2-(pyrrolidin-1-yl)ethyl)amino)pyrazine-2-carboxamide]
40.7 | Cc1nc(NCCN2CCCC2)c(C(C)c2ccc(F)cc2)nc1C(=O)NC1CCCC1 (centres unmarked) [Example 57, N-cyclopentyl-6-(1-(4-fluorophenyl)ethyl)-3-methyl-5-((2-(pyrrolidin-1-yl)ethyl)amino)pyrazine-2-carboxamide]
7.76 | Cc1nc(NCCN2CCCC2)c(C(C)c2ccc(F)cc2)nc1C(=O)N[C@H]1C[C@H](F)C1 (stereo partly drawn) [Example 76, N-(trans-3-fluorocyclobutyl)-6-(1-(4-fluorophenyl)ethyl)-3-methyl-5-((2-(pyrrolidin-1-yl)ethyl)amino)pyrazine-2-carboxamide]
229 | Cc1nc(Cc2ccc(F)cc2)c(NC2CCN(C)CC2)nc1C [Example 79, 3-(4-fluorobenzyl)-5,6-dimethyl-N-(1-methylpiperidin-4-yl)pyrazin-2-amine]
19.1 | Cc1nc(Cc2ccc(F)cc2)c(NCCN2CCCC2)nc1C [Example 80, 3-(4-fluorobenzyl)-5,6-dimethyl-N-(2-(pyrrolidin-1-yl)ethyl)pyrazin-2-amine]
240 | Cc1nc(Cc2ccc(F)cc2)c(N[C@@H]2CCN(C)C2)nc1C [Example 81, (R)-3-(4-fluorobenzyl)-5,6-dimethyl-N-(1-methylpyrrolidin-3-yl)pyrazin-2-amine]
107 | Cc1cccc(Cc2nc(C)c(C)nc2NC2CCN(C)CC2)c1 [Example 82, 5,6-dimethyl-3-(3-methylbenzyl)-N-(1-methylpiperidin-4-yl)pyrazin-2-amine]
7.76 | Cc1cccc(Cc2nc(C)c(C)nc2NCCN2CCCC2)c1 [Example 83, 5,6-dimethyl-3-(3-methylbenzyl)-N-(2-(pyrrolidin-1-yl)ethyl)pyrazin-2-amine]
45.7 | Cc1cccc(Cc2nc(C)c(C)nc2N[C@@H]2CCN(C)C2)c1 [Example 84, (R)-5,6-dimethyl-3-(3-methylbenzyl)-N-(1-methylpyrrolidin-3-yl)pyrazin-2-amine]
79.4 | Cc1cnc(NCCN2CCCC2)c(C(C)c2ccc(F)cc2)n1 (centres unmarked) [Example 86, 3-(1-(4-fluorophenyl)ethyl)-5-methyl-N-(2-(pyrrolidin-1-yl)ethyl)pyrazin-2-amine]
15.8 | CCc1cnc(Cc2ccccc2)c(NCCN2CCC2)n1 [Example 89, N-(2-(azetidin-1-yl)ethyl)-3-benzyl-6-ethylpyrazin-2-amine]
115 | CC1CN(C)CCC1Nc1nc(C(F)(F)F)cnc1Cc1ccc(F)cc1 (centres unmarked) [Example 92, N-(1,3-dimethylpiperidin-4-yl)-3-(4-fluorobenzyl)-6-(trifluoromethyl)pyrazin-2-amine]
77.6 | Fc1ccc(Cc2ncc(C(F)(F)F)nc2NCCN2CCCC2)cc1 [Example 93, 3-(4-fluorobenzyl)-N-(2-(pyrrolidin-1-yl)ethyl)-6-(trifluoromethyl)pyrazin-2-amine]
151 | CC(c1ccc(F)cc1)c1ncc(C(F)(F)F)nc1NCCN1CCCC1 (centres unmarked) [Example 94, 3-(1-(4-fluorophenyl)ethyl)-N-(2-(pyrrolidin-1-yl)ethyl)-6-(trifluoromethyl)pyrazin-2-amine]
36.3 | Cc1cccc(Cc2nc(C#N)c(C)nc2N[C@@H]2CCN(C)C2)c1 [Example 97, (R)-3-methyl-6-(3-methylbenzyl)-5-((1-methylpyrrolidin-3-yl)amino)pyrazine-2-carbonitrile]
77.6 | COc1cccc(Cc2nc(C#N)c(C)nc2N[C@@H]2CCN(C)C2)c1 [Example 98, (R)-6-(3-methoxybenzyl)-3-methyl-5-((1-methylpyrrolidin-3-yl)amino)pyrazine-2-carbonitrile]
107 | CN(C)C(=O)c1cnc(NCCN2CCCC2)c(Cc2ccc(F)cc2)c1 [Example 99, 5-(4-fluorobenzyl)-N,N-dimethyl-6-((2-(pyrrolidin-1-yl)ethyl)amino)nicotinamide]
95.5 | NC(=O)c1cnc(NCCN2CCCC2)c(Cc2ccc(F)cc2)c1 [Example 100, 5-(4-fluorobenzyl)-6-((2-(pyrrolidin-1-yl)ethyl)amino)nicotinamide]
166 | CNC(=O)c1cnc(NCCN2CCCC2)c(Cc2ccc(F)cc2)c1 [Example 101]
501 | CN1CCCC1CNc1nccnc1Cc1ccc(F)cc1 (centres unmarked) [Example 109, 3-(4-fluorobenzyl)-N-((1-methylpyrrolidin-2-yl)methyl)pyrazin-2-amine]
2040 | CN1CCC1CNc1nccnc1Cc1ccc(F)cc1 (centres unmarked) [Example 110, 3-(4-fluorobenzyl)-N-((1-methylazetidin-2-yl)methyl)pyrazin-2-amine]
550 | CN1CCCCC1CNc1nccnc1Cc1ccc(F)cc1 (centres unmarked) [Example 112, 3-(4-fluorobenzyl)-N-((1-methylpiperidin-2-yl)methyl)pyrazin-2-amine]
224 | CC(c1ccc(F)cc1)c1nccnc1NCCN1CCC(F)C1 (centres unmarked) [Example 117, 3-(1-(4-fluorophenyl)ethyl)-N-(2-(3-fluoropyrrolidin-1-yl)ethyl)pyrazin-2-amine]
